Measured values reported in PMC5218480 (PLoS ONE, 2017).

System: MV-4-11 cells
Assay: Gene expression microarray analysis (Affymetrix PrimeView) and GSEA
Format: cell-based, human
Parameters: RFU PODN (11730768_x_at) / Fold change /veh PODN (11730768_x_at) / RFU LINC00158 (11744669_a_at) / Fold change /veh LINC00158 (11744669_a_at) / RFU DUSP10 (11751237_a_at) / Fold change /veh DUSP10 (11751237_a_at) / RFU ID3 (11757404_x_at) / Fold change /veh ID3 (11757404_x_at) / RFU PLEKHG5 (11737974_s_at) / Fold change /veh PLEKHG5 (11737974_s_at) / RFU LRRC4B (11730491_at) / Fold change /veh LRRC4B (11730491_at) / RFU GIMAP4 (11747438_a_at) / Fold change /veh GIMAP4 (11747438_a_at) / RFU KRT8 (11758183_x_at) / Fold change /veh KRT8 (11758183_x_at) / RFU CNN1 (11734310_a_at) / Fold change /veh CNN1 (11734310_a_at) / RFU VPS37D (11726825_at) / Fold change /veh VPS37D (11726825_at) / RFU C10orf10 (11716522_x_at) / Fold change /veh C10orf10 (11716522_x_at) / RFU KIR2DL2 /// KIR2DL4 /// KIR2DL5A /// KIR2DL5B /// KIR2DS1 /// KIR2DS2 /// KIR2DS3 /// KIR2DS4 /// KIR3DL3 /// KIR3DL3 /// KIR3DS1 (11738374_at) / Fold change /veh KIR2DL2 /// KIR2DL4 /// KIR2DL5A /// KIR2DL5B /// KIR2DS1 /// KIR2DS2 /// KIR2DS3 /// KIR2DS4 /// KIR3DL3 /// KIR3DL3 /// KIR3DS1 (11738374_at) / RFU C1QL1 (11718748_at) / Fold change /veh C1QL1 (11718748_at) / RFU TMPRSS4 (11747572_a_at) / Fold change /veh TMPRSS4 (11747572_a_at) / RFU HAMP (11756126_x_at) / Fold change /veh HAMP (11756126_x_at) / RFU RNFT2 (11725882_a_at) / Fold change /veh RNFT2 (11725882_a_at) / RFU NR4A2 (11747474_a_at) / Fold change /veh NR4A2 (11747474_a_at) / RFU ABCC12 (11746883_a_at) / Fold change /veh ABCC12 (11746883_a_at) / RFU TMEM136 (11760407_x_at) / Fold change /veh TMEM136 (11760407_x_at) / RFU CLDN22 /// WWC2 (11732394_at) / Fold change /veh CLDN22 /// WWC2 (11732394_at) / RFU HLA-DPB1 (11760878_x_at) / Fold change /veh HLA-DPB1 (11760878_x_at) / RFU SPINT1 (11716480_a_at) / Fold change /veh SPINT1 (11716480_a_at) / RFU GAP43 (11754022_s_at) / Fold change /veh GAP43 (11754022_s_at) / RFU A4GNT (11735810_at) / Fold change /veh A4GNT (11735810_at) / RFU PRB3 (11715151_x_at) / Fold change /veh PRB3 (11715151_x_at) / RFU TUBB4B (11761932_at) / Fold change /veh TUBB4B (11761932_at) / RFU CAPN14 (11732068_a_at) / Fold change /veh CAPN14 (11732068_a_at) / RFU TMCC2 (11721928_a_at) / Fold change /veh TMCC2 (11721928_a_at) / RFU IRGQ (11745062_a_at) / Fold change /veh IRGQ (11745062_a_at) / RFU FAM174B (11720279_a_at) / Fold change /veh FAM174B (11720279_a_at) / RFU TMPRSS4 (11748680_a_at) / Fold change /veh TMPRSS4 (11748680_a_at) / RFU FAM212B (11763350_a_at) / Fold change /veh FAM212B (11763350_a_at) / RFU PLEKHG5 (11743358_a_at) / Fold change /veh PLEKHG5 (11743358_a_at) / RFU ZSCAN30 (11745921_a_at) / Fold change /veh ZSCAN30 (11745921_a_at) / RFU CMKLR1 (11741424_a_at) / Fold change /veh CMKLR1 (11741424_a_at) / RFU LOC101060620 /// MAPK8IP1 (11723275_at) / Fold change /veh LOC101060620 /// MAPK8IP1 (11723275_at) / RFU SPTSSB (11747773_x_at) / Fold change /veh SPTSSB (11747773_x_at) / RFU PRSS12 (11739890_at) / Fold change /veh PRSS12 (11739890_at) / RFU BIN1 (11741810_x_at) / Fold change /veh BIN1 (11741810_x_at) / RFU WNT11 (11732464_a_at) / Fold change /veh WNT11 (11732464_a_at) / RFU C10orf10 (11716521_a_at) / Fold change /veh C10orf10 (11716521_a_at) / RFU C5orf56 (11738089_at) / Fold change /veh C5orf56 (11738089_at) / RFU CYB561 (11721691_x_at) / Fold change /veh CYB561 (11721691_x_at) / RFU ANKRD19P (11752326_a_at) / Fold change /veh ANKRD19P (11752326_a_at) / RFU OR2T12 /// OR2T33 /// OR2T8 (11738714_s_at) / Fold change /veh OR2T12 /// OR2T33 /// OR2T8 (11738714_s_at) / RFU VCAN (11748164_a_at) / Fold change /veh VCAN (11748164_a_at) / RFU JSRP1 (11732532_at) / Fold change /veh JSRP1 (11732532_at) / RFU KRTAP10-11 (11738290_x_at) / Fold change /veh KRTAP10-11 (11738290_x_at) / RFU MYO3A (11730013_a_at) / Fold change /veh MYO3A (11730013_a_at) / RFU EBF3 (11725865_a_at) / Fold change /veh EBF3 (11725865_a_at) / RFU CAMK2N1 (11719241_x_at) / Fold change /veh CAMK2N1 (11719241_x_at) / RFU C5orf56 (11738088_a_at) / Fold change /veh C5orf56 (11738088_a_at) / RFU OLFML3 (11715873_a_at) / Fold change /veh OLFML3 (11715873_a_at) / RFU LOC100653217 /// NTM (11731650_a_at) / Fold change /veh LOC100653217 /// NTM (11731650_a_at) / RFU MAPK11 (11762145_a_at) / Fold change /veh MAPK11 (11762145_a_at) / RFU FIZ1 (11724087_x_at) / Fold change /veh FIZ1 (11724087_x_at) / RFU OASL (11726364_x_at) / Fold change /veh OASL (11726364_x_at) / RFU SOX15 (11748057_x_at) / Fold change /veh SOX15 (11748057_x_at) / RFU CD79A (11719716_a_at) / Fold change /veh CD79A (11719716_a_at) / RFU HIST1H1D (11736915_at) / Fold change /veh HIST1H1D (11736915_at) / RFU CASKIN2 (11723855_a_at) / Fold change /veh CASKIN2 (11723855_a_at) / RFU LOC730098 (11760151_x_at) / Fold change /veh LOC730098 (11760151_x_at) / RFU OR4N2 (11742367_at) / Fold change /veh OR4N2 (11742367_at) / RFU PRRT2 (11749266_a_at) / Fold change /veh PRRT2 (11749266_a_at) / RFU SNX32 (11753110_a_at) / Fold change /veh SNX32 (11753110_a_at) / RFU CDHR5 (11726645_a_at) / Fold change /veh CDHR5 (11726645_a_at) / RFU RCAN1 (11760418_a_at) / Fold change /veh RCAN1 (11760418_a_at) / RFU FAM167A (11723789_a_at) / Fold change /veh FAM167A (11723789_a_at) / RFU FAM26E (11764081_at) / Fold change /veh FAM26E (11764081_at) / RFU ISYNA1 (11749810_s_at) / Fold change /veh ISYNA1 (11749810_s_at) / RFU ACY1 (11761880_at) / Fold change /veh ACY1 (11761880_at) / RFU 11764098_at / Fold change /veh 11764098_at / RFU SAMD14 (11745864_x_at) / Fold change /veh SAMD14 (11745864_x_at) / RFU NPB (11741838_a_at) / Fold change /veh NPB (11741838_a_at) / RFU TMPRSS6 (11731388_a_at) / Fold change /veh TMPRSS6 (11731388_a_at) / RFU KRTAP10-2 (11738614_at) / Fold change /veh KRTAP10-2 (11738614_at) / RFU ARHGAP8 /// PRR5-ARHGAP8 (11727945_x_at) / Fold change /veh ARHGAP8 /// PRR5-ARHGAP8 (11727945_x_at) / RFU KRTAP5-7 /// NADSYN1 (11734609_at) / Fold change /veh KRTAP5-7 /// NADSYN1 (11734609_at) / RFU RASL12 (11751679_a_at) / Fold change /veh RASL12 (11751679_a_at) / RFU CDKN2B (11736163_a_at) / Fold change /veh CDKN2B (11736163_a_at) / RFU PRF1 (11729649_at) / Fold change /veh PRF1 (11729649_at) / RFU, ZNF638 /// ZNF638-IT1 / Fold change vs veh, ZNF638 /// ZNF638-IT1 / RFU, PANK3 / Fold change vs veh, PANK3 / RFU, SH3YL1 / Fold change vs veh, SH3YL1 / RFU, ZEB2 / Fold change vs veh, ZEB2 / RFU, NRIP1 / Fold change vs veh, NRIP1 / RFU, PTTG1IP / Fold change vs veh, PTTG1IP / RFU, CAPN2 / Fold change vs veh, CAPN2 / RFU, MED14 / Fold change vs veh, MED14 / RFU, SNORA58 / Fold change vs veh, SNORA58 / RFU, C1orf63 / Fold change vs veh, C1orf63 / RFU, LRRFIP1 / Fold change vs veh, LRRFIP1 / RFU, NDUFAF7 / Fold change vs veh, NDUFAF7 / RFU, SLC12A2 / Fold change vs veh, SLC12A2 / RFU, IBTK / Fold change vs veh, IBTK / RFU, ESF1 / Fold change vs veh, ESF1 / Fold change vs veh, TMEM50B / RFU, TAOK1 / Fold change vs veh, TAOK1 / RFU, ACBD3 / Fold change vs veh, ACBD3 / RFU, TMA16 / Fold change vs veh, TMA16 / RFU, RWDD3 / Fold change vs veh, RWDD3 / RFU, BCAT1 / Fold change vs veh, BCAT1 / RFU, EDEM3 / Fold change vs veh, EDEM3 / RFU, TMEM33 / Fold change vs veh, TMEM33 / RFU, WDR75 / Fold change vs veh, WDR75 / RFU, AHCTF1 / Fold change vs veh, AHCTF1 / RFU, TFRC / Fold change vs veh, TFRC / RFU, ZDHHC17 / Fold change vs veh, ZDHHC17 / RFU, NOM1 / Fold change vs veh, NOM1 / RFU, ARL8B / Fold change vs veh, ARL8B / RFU, ZBTB11 / Fold change vs veh, ZBTB11 / RFU, TAMM41 / Fold change vs veh, TAMM41 / RFU, KIAA1704 /// LOC100996395 / Fold change vs veh, KIAA1704 /// LOC100996395 / RFU, ING1 / Fold change vs veh, ING1 / RFU, TRMT61B / Fold change vs veh, TRMT61B / RFU, FUBP3 / Fold change vs veh, FUBP3 / RFU, TP53 / Fold change vs veh, TP53 / RFU, TNKS2 / Fold change vs veh, TNKS2 / RFU, ZFP14 / Fold change vs veh, ZFP14 / RFU, ACTR2 / Fold change vs veh, ACTR2 / RFU, PPP3R1 / Fold change vs veh, PPP3R1 / RFU, PIK3R1 / Fold change vs veh, PIK3R1 / RFU, HNRNPA1 / Fold change vs veh, HNRNPA1 / RFU, RNF170 / Fold change vs veh, RNF170 / RFU, ZNF28 / Fold change vs veh, ZNF28 / RFU, RNGTT / Fold change vs veh, RNGTT / RFU, OGT / Fold change vs veh, OGT / RFU, BRD1 / Fold change vs veh, BRD1 / RFU, MARS / Fold change vs veh, MARS / RFU, ZNF655 / Fold change vs veh, ZNF655 / RFU, FAHD1 / Fold change vs veh, FAHD1 / RFU, BDP1 / Fold change vs veh, BDP1 / RFU, LRRCC1 / Fold change vs veh, LRRCC1 / RFU, ARID1A / Fold change vs veh, ARID1A / RFU, ZNF146 / Fold change vs veh, ZNF146 / RFU, ZNF330 / Fold change vs veh, ZNF330 / RFU, GPN3 / Fold change vs veh, GPN3 / RFU, C9orf123 / Fold change vs veh, C9orf123 / RFU, N4BP2L2 / Fold change vs veh, N4BP2L2 / RFU, ARFIP1 / Fold change vs veh, ARFIP1 / RFU, FAM179B / Fold change vs veh, FAM179B / RFU, BCL10 / Fold change vs veh, BCL10 / RFU, UHRF1BP1L / Fold change vs veh, UHRF1BP1L / RFU, BET1 / Fold change vs veh, BET1 / RFU, CNOT2 / Fold change vs veh, CNOT2 / RFU, ZNF268 / Fold change vs veh, ZNF268 / Fold change vs veh, ZNF507 / RFU, DGCR2 / Fold change vs veh, DGCR2 / RFU, WDSUB1 / Fold change vs veh, WDSUB1 / Fold change vs veh, HSP90B1 /// MIR3652 / RFU, ADSS / Fold change vs veh, ADSS / RFU, GK / Fold change vs veh, GK / RFU, ZNF148 / Fold change vs veh, ZNF148 / RFU, TAF9 / Fold change vs veh, TAF9 / RFU, SLC1A5 / Fold change vs veh, SLC1A5 / RFU, SLMO2 / Fold change vs veh, SLMO2 / RFU, ABCC4 / Fold change vs veh, ABCC4 / RFU, LOC101060439 /// RAP1B / Fold change vs veh, LOC101060439 /// RAP1B / RFU, RFX7 / Fold change vs veh, RFX7 / RFU, GTPBP10 / Fold change vs veh, GTPBP10 / RFU, CNEP1R1 / Fold change vs veh, CNEP1R1 / RFU, BIVM-ERCC5 /// ERCC5 / Fold change vs veh, BIVM-ERCC5 /// ERCC5 / RFU, ILF3 / Fold change vs veh, ILF3 / RFU 11762660_at / Fold change /veh 11762660_at / RFU VCAN (11757783_s_at) / Fold change /veh VCAN (11757783_s_at) / RFU DDX43 (11728927_at) / Fold change /veh DDX43 (11728927_at) / RFU KRT8 (11758188_x_at) / Fold change /veh KRT8 (11758188_x_at) / RFU NKD1 (11759106_at) / Fold change /veh NKD1 (11759106_at) / RFU SRD5A1 (11742802_a_at) / Fold change /veh SRD5A1 (11742802_a_at) / RFU TPSAB1 /// TPSB2 (11721975_s_at) / Fold change /veh TPSAB1 /// TPSB2 (11721975_s_at) / RFU GSTM3 (11746129_a_at) / Fold change /veh GSTM3 (11746129_a_at) / RFU IL23R (11737362_x_at) / Fold change /veh IL23R (11737362_x_at) / RFU TMEM51 (11727254_a_at) / Fold change /veh TMEM51 (11727254_a_at) / RFU PIWIL2 (11732686_x_at) / Fold change /veh PIWIL2 (11732686_x_at) / RFU ORM1 (11744905_x_at) / Fold change /veh ORM1 (11744905_x_at) / RFU CCDC152 (11743942_at) / Fold change /veh CCDC152 (11743942_at) / RFU ECM1 (11717891_a_at) / Fold change /veh ECM1 (11717891_a_at) / RFU IL23R (11748794_a_at) / Fold change /veh IL23R (11748794_a_at) / RFU TNFAIP8L3 (11732012_x_at) / Fold change /veh TNFAIP8L3 (11732012_x_at) / RFU MBOAT4 (11741988_at) / Fold change /veh MBOAT4 (11741988_at) / RFU 11764193_at / Fold change /veh 11764193_at / RFU TMEM53 (11763286_at) / Fold change /veh TMEM53 (11763286_at) / RFU MAGEB2 (11727129_at) / Fold change /veh MAGEB2 (11727129_at) / RFU TMEM200A (11744735_a_at) / Fold change /veh TMEM200A (11744735_a_at) / RFU CCDC152 (11751479_a_at) / Fold change /veh CCDC152 (11751479_a_at) / RFU FAM211A (11726209_a_at) / Fold change /veh FAM211A (11726209_a_at) / RFU RGS16 (11746705_a_at) / Fold change /veh RGS16 (11746705_a_at) / RFU VCAN (11755009_s_at) / Fold change /veh VCAN (11755009_s_at) / RFU RHOB (11743442_s_at) / Fold change /veh RHOB (11743442_s_at) / RFU RGS16 (11720943_a_at) / Fold change /veh RGS16 (11720943_a_at) / RFU RGS16 (11720944_at) / Fold change /veh RGS16 (11720944_at) / RFU, VPS4B / Fold change vs veh, VPS4B / RFU, CREB1 / Fold change vs veh, CREB1 / RFU, DNAJC13 / Fold change vs veh, DNAJC13 / RFU, GNAQ / Fold change vs veh, GNAQ / RFU, CDK5R1 / Fold change vs veh, CDK5R1 / RFU, ZRANB3 / Fold change vs veh, ZRANB3 / RFU, CUL4A / Fold change vs veh, CUL4A / RFU, CCNY / Fold change vs veh, CCNY / RFU, UFL1 / Fold change vs veh, UFL1 / RFU, COG3 / Fold change vs veh, COG3 / RFU, DIAPH2 / Fold change vs veh, DIAPH2 / RFU, SKA2 / Fold change vs veh, SKA2 / RFU, AFF3 / Fold change vs veh, AFF3 / RFU, LMF1 / Fold change vs veh, LMF1 / RFU, IPO11 / Fold change vs veh, IPO11 / RFU, DFFB / Fold change vs veh, DFFB / RFU, FOXP1 / Fold change vs veh, FOXP1 / RFU, CARD8 / Fold change vs veh, CARD8 / RFU, STRN3 / Fold change vs veh, STRN3 / RFU, ADK / Fold change vs veh, ADK / RFU, RASSF2 / Fold change vs veh, RASSF2 / RFU, WIPF1 / Fold change vs veh, WIPF1 / RFU, LARP1B / Fold change vs veh, LARP1B / RFU, RASA1 / Fold change vs veh, RASA1 / RFU, RB1 / Fold change vs veh, RB1 / RFU, PPFIA1 / Fold change vs veh, PPFIA1 / RFU, MAT2A / Fold change vs veh, MAT2A / RFU, CCT5 / Fold change vs veh, CCT5 / RFU, WDR92 / Fold change vs veh, WDR92 / RFU, CUX1 / Fold change vs veh, CUX1 / RFU, TTC7A / Fold change vs veh, TTC7A / RFU, TMEM135 / Fold change vs veh, TMEM135 / RFU, DEPTOR / Fold change vs veh, DEPTOR / RFU, CPM / Fold change vs veh, CPM / RFU, DNAJB6 / Fold change vs veh, DNAJB6 / RFU, CACNA2D3 / Fold change vs veh, CACNA2D3 / RFU, DTX4 / Fold change vs veh, DTX4 / RFU, TFCP2 / Fold change vs veh, TFCP2 / RFU, GMCL1 /// GMCL1P1 / Fold change vs veh, GMCL1 /// GMCL1P1 / RFU, AEBP2 / Fold change vs veh, AEBP2 / RFU, SNHG1 /// SNORD22 /// SNORD25 /// SNORD26 /// SNORD27 /// SNORD28 /// SNORD29 /// SNORD31 / Fold change vs veh, SNHG1 /// SNORD22 /// SNORD25 /// SNORD26 /// SNORD27 /// SNORD28 /// SNORD29 /// SNORD31 / Fold change (Aza/veh), C12orf56 (ProbeSet 11735607_a_at) / Fold change (ACY-1035/veh), C12orf56 (ProbeSet 11735607_a_at) / Fold change (Aza/veh), FGFR1OP (ProbeSet 11751329_s_at) / Fold change (ACY-1035/veh), FGFR1OP (ProbeSet 11751329_s_at) / Fold change (Aza/veh), VPS36 (ProbeSet 11739960_a_at) / Fold change (ACY-1035/veh), VPS36 (ProbeSet 11739960_a_at) / RFU SYPL1 (11715823_x_at) / Fold change /veh SYPL1 (11715823_x_at) / RFU IGFBP7 (11715501_s_at) / Fold change /veh IGFBP7 (11715501_s_at) / RFU REEP3 (11722064_at) / Fold change /veh REEP3 (11722064_at) / RFU IGLL1 (11728026_x_at) / Fold change /veh IGLL1 (11728026_x_at): dose or concentration left out as unconfirmed
Conditions: MV-4-11 cells, 48 hours

Nc1ccc(-c2cccs2)cc1NC(=O)c1ccc2c(c1)cc(C1CC1)n2CCN1CCOCC1 [ACY-1035]
RFU OR4N2 (11742367_at): 72.30 RFU
